Patent US20080253978A1, “Derivatives of Pyrrolyltriazine Together with Methods for Obtaining Them and Their Use as Protecting Agents Uv Radiation” (ISDIN, S.A., priority 2005, published 2008)
“And” between values parts separate entries of the source, which are not always exact repeats. Equal entries are not always repeated.

Experiments:
[1] = UV absorption (λmax, εmax) in solution; assay type: physicochemical

**Q.** Which “UV λmax” value ([1]; ethanol) does the source give for `O=C(c1ccccc1)c1ccc(Nc2nc(Nc3ccc(C(=O)c4ccccc4)cc3)nc(-c3cccn3Cc3ccccc3)n2)cc1` [Example 4, 2-(1-benzyl-1H-pyrrol-2-yl)-4,6-bis(4-benzoylphenylamino)-1,3,5-triazine] here?
**A.** 330 nm

**Q.** And the εmax ([1]; ethanol)?
**A.** 80000 M⁻¹ cm⁻¹

**Q.** What about the melting point of the same compound?
**A.** 115 to 118 °C

**Q.** Which εmax ([1]; chloroform) does the source give for `CCCCOC(=O)c1ccc(Nc2nc(Nc3ccc(C(=O)OCCCC)cc3)nc(-c3cccn3Cc3ccccc3)n2)cc1` [Example 2, 2-(1-benzyl-1H-pyrrol-2-yl)-4,6-bis[4-(butoxycarbonyl)phenylamino]-1,3,5-triazine] here?
**A.** 64000 M⁻¹ cm⁻¹

**Q.** And the λmax ([1]; chloroform)?
**A.** 312 nm

**Q.** What about the melting point of the same compound?
**A.** 173 to 174 °C

**Q.** Which results are given for `CCCCC(CC)COc1ccc(-c2nc(-c3ccc(OCC(CC)CCCC)cc3O)nc(-c3cccn3Cc3ccccc3)n2)c(O)c1` (stereo not drawn) [Example 1, 2-(1-benzyl-1H-pyrrol-2-yl)-4,6-bis[4-(2-ethylhexyloxy)-2-hydroxyphenyl]-1,3,5-triazine]?
**A.** εmax ([1]; chloroform): 66000 M⁻¹ cm⁻¹; λmax ([1]; chloroform): 350-352 nm; melting point: 66 to 68 °C

**Q.** With `O=C1c2ccccc2-c2cc(Nc3nc(Nc4ccc5c(c4)-c4ccccc4C5=O)nc(-c4cccn4Cc4ccccc4)n3)ccc21` [Example 5, 2-(1-benzyl-1H-pyrrol-2-yl)-4,6-bis(9-oxo-9H-fluoren-3-ylamino)-1,3,5-triazine] as the compound, how does the “UV λmax” value ([1]; ethanol) read?
**A.** 292 nm

**Q.** And the εmax ([1]; ethanol)?
**A.** 77000 M⁻¹ cm⁻¹

**Q.** What about the melting point of the same compound?
**A.** 140 to 142 °C

**Q.** Which melting point does the source give for `Oc1ccc(-c2nc(-c3ccc(O)cc3O)nc(-c3cccn3Cc3ccccc3)n2)c(O)c1` [Example 1 b), 2-(1-benzyl-1H-pyrrol-2-yl)-4,6-bis(2,4-dihydroxyphenyl)-1,3,5-triazine] here?
**A.** > 275 °C

**Q.** With `c1ccc(Cn2cccc2-c2nc(Nc3ccc(-c4nc5ccccc5[nH]4)cc3)nc(Nc3ccc(-c4nc5ccccc5[nH]4)cc3)n2)cc1` [Example 11, 2-(1-benzyl-1H-pyrrol-2-yl)-4,6-bis[4-(1H-benzo[d]imidazol-2-yl)phenylamino]-1,3,5-triazine] as the compound, how does the “UV λmax” value ([1]; CHCl3/MeOH) read?
**A.** 327 nm

**Q.** What about the εmax ([1]; CHCl3/MeOH) of the same compound?
**A.** 100000 M^1 cm^−1

**Q.** Which “UV λmax” value ([1]; ethanol) does the source give for `c1ccc(Cn2cccc2-c2nc(Nc3ccc(-c4ccccc4)cc3)nc(Nc3ccc(-c4ccccc4)cc3)n2)cc1` [Example 3, 2-(1-benzyl-1H-pyrrol-2-yl)-4,6-bis(biphenyl-4-ylamino)-1,3,5-triazine] here?
**A.** 309 nm

**Q.** And the εmax ([1]; ethanol)?
**A.** 73000 M⁻¹ cm⁻¹

**Q.** What about the melting point of the same compound?
**A.** 185 to 186 °C

**Q.** For `CCCCC(CC)COC(=O)c1ccc(Nc2nc(Nc3ccc(C(=O)OCC(CC)CCCC)cc3)nc(-c3cccn3Cc3ccccc3)n2)cc1` (stereo not drawn) [Example 9, 2-(1-benzyl-1H-pyrrol-2-yl)-4,6-bis[4-((2-ethylhexyloxy)carbonyl)phenylamino]-1,3,5-triazine], which “UV λmax” value ([1]; CHCl3/MeOH) is on record?
**A.** 315 nm

**Q.** What about the εmax ([1]; CHCl3/MeOH) of the same compound?
**A.** 76000 M⁻¹ cm⁻¹

**Q.** Which “UV λmax” value ([1]; CHCl3) does the source give for `C(=C\c1ccc(Nc2nc(Nc3ccc(/C=C/c4ccccc4)cc3)nc(-c3cccn3Cc3ccccc3)n2)cc1)/c1ccccc1` [Example 15, 2-(1-benzyl-1H-pyrrol-2-yl)-4,6-bis[4-(E)-styrylphenylamino]-1,3,5-triazine] here?
**A.** 336 nm

**Q.** And the εmax ([1]; CHCl3)?
**A.** 102000 M^1 cm^−1

**Q.** For “2-(1-benzyl-1H-pyrrol-2-yl)-4,6-bis[4-(H-imidazo[1,2-a]pyridin-2-yl)phenylamino]-1,3,5-triazine [Example 10]”, which “UV λmax” value ([1]; DMSO) is on record?
**A.** 338 nm

**Q.** What about the εmax ([1]; DMSO) of the same compound?
**A.** 55000 M⁻¹ cm⁻¹

**Q.** Which results are given for `CCCCOC(=O)c1ccc(Nc2nc(Nc3ccc(C(=O)OCCCC)cc3)nc(-c3cccn3C(c3ccccc3)c3ccccc3)n2)cc1` [Example 7, 2-(1-benzydryl-1H-pyrrol-2-yl)-4,6-bis[4-(butoxycarbonyl)phenylamino]-1,3,5-triazine]?
**A.** UV λmax ([1]; ethanol): 315 nm; εmax ([1]; ethanol): 81000 M⁻¹ cm⁻¹; melting point: 80 to 82 °C

**Q.** For `c1ccc(Cn2cccc2-c2nc(Nc3ccc(-c4cn5ccccc5n4)cc3)nc(Nc3ccc(-c4cn5ccccc5n4)cc3)n2)cc1` [Example 6, 2-(1-benzyl-1H-pyrrol-2-yl)-4,6-bis[4-(imidazo[1,2-a]pyridin-2-yl)phenylamino]-1,3,5-triazine], which “UV λmax” value ([1]; ethanol) is on record?
**A.** 332 nm

**Q.** And the εmax ([1]; ethanol)?
**A.** 71000 M⁻¹ cm⁻¹

**Q.** For `c1ccc(Cn2cccc2-c2nc(Nc3ccc4ccccc4c3)nc(Nc3ccc4ccccc4c3)n2)cc1` [Example 13, 2-(1-benzyl-1H-pyrrol-2-yl)-4,6-bis[naphthalen-2-ylamino]-1,3,5-triazine], which “UV λmax” value ([1]; MeOH) is on record?
**A.** 263 nm and 308 nm

**Q.** What about the εmax ([1]; MeOH, at λmax=263 nm) of the same compound?
**A.** 54000 M⁻¹ cm⁻¹

**Q.** And the εmax ([1]; MeOH, at λmax=308 nm)?
**A.** 52000 M⁻¹ cm⁻¹

**Q.** Which “UV λmax” value ([1]; MeOH) does the source give for `c1ccc(Cn2cccc2-c2nc(Nc3ccc(-n4cccn4)cc3)nc(Nc3ccc(-n4cccn4)cc3)n2)cc1` [Example 12, 2-(1-benzyl-1H-pyrrol-2-yl)-4,6-bis[4-(1H-pyrazol-1-yl)phenylamino]-1,3,5-triazine] here?
**A.** 307 nm

**Q.** And the εmax ([1]; MeOH)?
**A.** 67000 M⁻¹ cm⁻¹

**Q.** What does the source list for `CCOC(=O)/C=C/c1ccc(Nc2nc(Nc3ccc(/C=C/C(=O)OCC)cc3)nc(-c3cccn3Cc3ccccc3)n2)cc1` [Example 14, 2-(1-benzyl-1H-pyrrol-2-yl)-4,6-bis[4-((E)-3-ethoxy-3-oxoprop-1-enyl)phenylamino]-1,3,5-triazine]?
**A.** UV λmax ([1]; MeOH): 336 nm; εmax ([1]; MeOH): 57000 M⁻¹ cm⁻¹
